Experimental data reported in paper PMC10985536, “Aqueous solution and solid-state behaviour of L-homophenylalanine: experiment, modelling, and DFT calculations” (RSC Advances, 2024).
Several values for one entry are separate records, joined by “and”; a condition that tells them apart may be missing. Equal values may be shown once. Read-outs that look alike come from different tables or passages of the source.

Legend:
[1] = design: method as in PMID 17874082; settings: cited from earlier work
[2] = heating 2 K min^-1, helium
Procedure: TG was performed with a Sensys Evo twin type instrument manufactured by Setaram Instrumentation, France. Grinded samples of about 4 to 7 mg L-Hpa were weighed into open 100 μL aluminium crucibles and analysed with a linear temperature program under a helium (5.0) atmosphere. For the measurement, the following heating program was employed: starting at 298 K heating to 673 K with 2 K min^−1 and subsequent cooling to 298 K with 5 K min^−1. […] Temperature calibration of the instrument is performed regularly using the melting temperatures of highly pure indium, tin, zinc and lead at different heating rates.

[3] = Aqueous solubility of L-Hpa as a function of temperature and pH (isothermal equilibration, HPLC); type: physicochemical; settings: for Solubility in water: pure water (at pI)
Procedure: HPLC analysis was performed via a Dionex UltiMate3000 system manufactured by Thermo Scientific, Waltham. Two different HPLC methods were employed to quantify the L-Hpa concentration. The first method relies on a 150 mm long Crownpak (CR+) column (Daicel Corporation, Osaka) with a diameter of 4 mm and a particle size of 5 μm. Measurement took place at 298 K with an eluent flow rate of 0.8 mL min^−1 and an injection volume of 1 μL. Detection was achieved by light absorbance at 200 nm. Aqueous solution of perchloric acid with a pH of 2 was used as eluent. This method was developed in our lab but a similar one was employed in the literature.[14] The second method is based on another work,[31] where a Chirobiotic T column (Astec) with a length of 250 mm, a diameter of 4.6 mm and a particle size of 5 μm was utilized. 0.5 mL per L acetic acid was added to 0.01 mol per L ammonium acetate solution, which was then mixed with methanol in the volumetric ratio of 30/70 to produce the eluent. Measurements were done with an eluent flow rate of 0.5 mL min^−1 by adding 10 μL of sample and detection of light absorbance at 210 nm. Calibration was obtained by dissolving known amounts of L-Hpa in eluent and correlating the measured light absorbance to the concentration by linear regression.
pH measurements were performed with an MP225 pH meter with an InLab Micro Pro probe manufactured by Mettler Toledo, USA. The system is calibrated in regular intervals and each day the accuracy was checked by measuring pH standards at room temperature. At 298 K the pH values were stable and used for the evaluation, while for 328 K either the stable value or the value after 60 s was accepted to reduce the influence of cooling (and potential nucleation).
Equilibrium experiments at isothermal conditions were performed in tempered double jacketed glass reactors at different temperatures. First, L-Hpa, was mixed with water and dissolved completely by heating the suspension. The samples of about 10 mL were then brought to the target temperature at which they were allowed to equilibrate for at least 48 h while being stirred continuously. […] For selected samples at both saturation temperatures (298 K and 328 K), a solid–liquid separation was conducted by vacuum filtration and the obtained solids were analysed by HPLC and PXRD.
Most experiments for determination of pH-dependent solubilities were performed in the Crystalline multi reactor system, manufactured by Technobis Crystallization Systems, The Netherlands. […] Shortly before complete dissolution was detected visually, the buffer addition was stopped. […] On the next day, stirring was stopped, liquid samples were withdrawn and the pH was recorded. […]

| Structure (SMILES) | pKa(1) (COOH), experimental [1] | pKa(2) (NH3), experimental [1] | TG mass loss ([2]; at about 520 K) | TG mass loss ([2]; up to about 560 K) [wt%] | Solubility in water ([3]; 298 K) [mol%] | Solubility in water ([3]; 328 K) | Highest solubility observed ([3]; pH 1.07, 328 K, perchloric acid buffer) [mol%] | Solubility increase at sufficiently low or high pH ([3]; pH 1.5 or 10.5) |
| --- | --- | --- | --- | --- | --- | --- | --- | --- |
| N[C@@H](Cc1c[nH]cn1)C(=O)O [histidine] | 1.64 ± 0.45 | 9.14 ± 0.08 | – | – | – | – | – | – |
| N[C@@H](Cc1ccccc1)C(=O)O [Phenylalanine] | – | 9.17 ± 0.06 | – | – | – | – | – | – |
| N[C@@H](CCc1ccccc1)C(=O)O [L-Hpa, L-homophenylalanine] | – | – | ca. 10 wt% | 95 | 0.0075 | 0.0153 mol% and 0.015 mol% | 0.278 | increase almost twentyfold |
